Literature values, collected in patent US4370313A, “Nitrofurantoin dosage form” (Eaton Laboratories, Inc., priority 1981, dated 1983).

In the case of `O=C1CN(/N=C/c2ccc([N+](=O)[O-])o2)C(=O)N1` [nitrofurantoin], the “preferred absorption in a limited segment of the human gastrointestinal tract” value is given as “duodenum” and the “expected urinary level peaks” value (immediately available dose, conventional dosage forms, human) is given as 2 to 3 h.
